Consider 2 compounds from patent US5300433A, “Methods for the inactivation of viruses in viral-contaminated pharmaceutical compositions” (Rhone-Poulenc Rorer Pharmaceuticals Inc., priority 1991, dated 1994).

Like-named read-outs stand apart in the source and are kept apart here.

For data set [1], the system named is HIV. Particulars: initial titer 9 log10. The method, then: A virus stock concentrate was prepared by infecting (CEM) cells at a multiplicity of infection of approximately 1. The cultures were established in 490 cm^2 Corning roller bottles containing approximately 450 ml of RPMI 1640 medium sufficient as is supplemented with 10% fetal bovine serum, penicillin, streptomycin, and 0.002 mg/ml polybrene. […] The total volume of the cultures was 1800 ml. […] The cultures were filtered through a 1.2 uM cellulose acetate filter. Virus was pelleted from the filtrate by centrifugation at 61,000×g for 4 hours at 4° C. The pelleted virus was resuspended with PBS (phosphate buffered saline solution).
Samples A, B and C were allowed to stand for 1 hour at 4° C. and sample D was allowed to stand for 1 hour at 25° C. Each sample was then centrifuged at 105,000×g for 90 minutes. The pellets were resuspended in 1 ml PBS and assayed for HIV by direct observation of the cytopathic effects of the virus on CEM cells. The assay method used in this example inherently rounds off titer to the nearest 0.5 log increment.

Data set [2] relates to HIV. More on the design: species or system Human Immunodeficiency Virus. The source says: The Factor IX solution obtained is further contacted with HIV virus to obtain a final titer of 8-9 log10 of virus. […]. The solution is then dialyzed to remove the chemical disinfectant and then filtered through a membrane with an effective porosity equivalent to 100 KD molecular weight cut off.

The test system of data set [3] is Factor IX - deficient plasma. As to the kind of experiment: Factor IX activity by degree of correction in APTT time of Factor IX-deficient plasma. Format: biochemical, human. The method, then: A purified Factor IX was obtained from PROTHAR® by chromatography on a monoclonal antibody affinity matrix specific to Factor IX. It contained approximately 0.065 milligrams of protein and 8 units of Factor IX activity per milliliter of solution. The purified preparation was ultrafiltered using an Amicon XM300 membrane and pressure of 5 p.s.i. The ultrafiltration proceeded very rapidly (about 2.5 ml/min). The filtrate was subsequently re-filtered through an Amicon XM100 membrane. The Factor IX activity in the final ultrafiltrate was 67%. Losses were not the result of Factor IX inactivation since specific activity was unaltered.
The product covered by this registered trademark of Armour Pharmaceutical is a stable lyophilized concentrate of human Factors II, VII, IX and X. It is prepared from pooled human plasma. Upon reconstitution it is a concentrated protein solution containing approximately 18 milligrams of total protein and 33 units of Factor IX activity per milliliter. The specific activity of Factor IX in the product ranges from 0 8-2.0 units per milligram of total protein.
In the first run, PROTHAR® was diluted 1:1 with 0.05M Tris-HCL, pH8.0. The resultant solution was ultrafiltered through an Amicon XM100 membrane (molecular weight cut-off of 100 K Daltons) using a pressure of 15 p.s.i. The ultrafiltration proceeded very slowly (about 0.25 ml/min), and the flow rate slowed as the protein inside the stirred cell became more concentrated. Only about 1% of the Factor IX activity found in the starting material appeared in the ultrafiltrate. […] Factor IX activity, in this and all other instances, is assayed by determining the degree of correction in APTT time of Factor IX - deficient plasma. J. H. Lenahan, Phillips and Phillips, Clin. Chem., Vol. 12, page 269 (1966).
Subsequent experiments were performed using an Amicon XM300 membrane (molecular weight cut-off of 300 K Daltons), pressures of 5 p.s.i., and reconstituted PROTHAR® dilutions of 1:6 and 1:10. Only about 17-19% of the Factor IX activity was found in the ultrafiltrate.

For `N#CS` [NaSCN, sodium thiocyanate], the “TOTAL LOG10 ID50 (found)” value in the data set with HIV [1] (Sample A: final NaSCN 1.5, 1 hour, 4° C.) came to 1.0 LOG10 ID50; in the data set on HIV [1] (Sample B: final NaSCN 2.0, 1 hour, 4° C.) it was 1.0 LOG10 ID50; in the data set with HIV [1] (Sample C: final NaSCN 3.0, no buffer, 1 hour, 4° C.) it was 1.0 LOG10 ID50; in the data set on HIV [1] (Sample D: final NaSCN 2.0, 1 hour, 25° C.) it was 1.0 LOG10 ID50. For the same compound, in the data set with HIV [2], the “titer of HIV infectivity” value is recorded as “undetectable levels”.

As to “Factor IX: purified Factor IX obtained from PROTHAR by chromatography on a monoclonal antibody affinity matrix specific to Factor IX”, the F.IX recovered in data set [3] (Example 5, 100 KD molecular weight cut-off filtration) was 80-100%. In addition, in data set [3] (Example 6, dialysis and 100 KD cut-off filtration), the “Factor IX activity recovered” value was 80-100%. Further, the “specific activity after ultrafiltration” value in data set [3] (affinity-purified Factor IX, XM300 then XM100 membrane) is listed as “unaltered”. Besides, the “Factor IX activity in the final ultrafiltrate” value in data set [3] (affinity-purified Factor IX, XM300 then XM100 membrane, 5 p.s.i.) is 67%. Also, in data set [3] (after 0.1% tri(n-butyl)phosphate and 1% Tween 80), the “active Factor IX content, of the initial value” was > 80%. The specific activity in data set [3] (pre-purified by chromatography on a monoclonal antibody affinity matrix) is ≤ 190 units/mg of protein. In addition, in data set [3] (purified Factor IX, approximately 0.065 milligrams of protein per milliliter), the “Factor IX activity per milliliter of solution” value is recorded as ~8 units per milliliter. Besides, the “HIV titer after dialysis and filtration” value in the data set with HIV [2] (100 KD cut-off membrane, after NaSCN treatment) is “further reduced”.
